Test results reported in US8758816B2, “Compositions comprising azelastine and methods of use thereof” (priority 2004, dated 2014).
Structures can show the parent of a compound that is named as a salt.

Tested on: patients with seasonal allergic rhinitis (SAR)
Assay: MP 428 study: adverse events, Safety Population
Type: in vivo, human
Method: A two-week, randomized, double-blind study, which evaluated the effects of the co-administration of ASTELIN® (azelastine hydrochloride (HCl)) and FLONASE® (fluticasone propionate) compared to either product alone in patients with seasonal allergic rhinitis (SAR) was conducted during the 2006 Texas mountain cedar season. After a 5-day placebo lead-in period, 151 patients with moderate-to-severe allergic rhinitis symptoms were randomized to either: (1) (49 total patients) ASTELIN® (azelastine hydrochloride (HCl)) plus placebo saline nasal spray 2 sprays per nostril, 15 minutes apart, twice daily (AM & PM); (2) (50 total patients) FLONASE® (fluticasone propionate) plus placebo saline nasal spray, 2 sprays per nostril, 15 minutes apart, once daily (AM) and two sessions of placebo saline nasal spray, 2 sprays per nostril, 15 minutes apart (PM); or (3) (52 total patients) the co-administration of ASTELIN® (azelastine hydrochloride (HCl)) 2 sprays per nostril plus FLONASE® (fluticasone propionate) 2 sprays per nostril (AM), 15 minutes apart, and ASTELIN® (azelastine hydrochloride (HCl)) 2 sprays per nostril plus placebo saline nasal spray, 15 minutes apart, (PM) for a 2-week double-blind treatment period.
The most common adverse events (AEs) were bitter taste (8.2% in ASTELIN® (azelastine hydrochloride (HCl)) group, 2.0% in FLONASE® (fluticasone propionate) group, 13.5% in co-administration group) and headache (4.1% in ASTELIN® (azelastine hydrochloride (HCl)) group, 4.0% in FLONASE® (fluticasone propionate) group, 5.8% in co-administration group). No other AE was reported by more than one patient in any treatment group. There were no discontinuations due to AEs.

[1] = Possibly related to study drug, Safety Population
[2] = Probably related to study drug, Safety Population
[3] = Total (possibly or probably related), Safety Population

CN1CCCC(n2nc(Cc3ccc(Cl)cc3)c3ccccc3c2=O)CC1 (racemic) [Azelastine, (±)-1-(2H)-phthalazinone, 4-[(4-chlorophenyl)methyl]-2-(hexahydro-1-methyl-1H-azepin-4-yl)-, mono-hydrochloride] was tested, and the “Primary Reason for Discontinuation From Study: Adverse Event” value (All Randomized Patients) was 0 (0.0) N (%), the “Number (%) Patients With Treatment-Related AEs by Maximum Severity” value (Mild) was 1 (2.0) Number (%) and the “Number (%) Patients With Treatment-Related AEs by Maximum Severity” value (Moderate) was 0 (0.0) Number (%). The “Treatment-Related Adverse Events: Any Adverse Event” value [1] was 1 (2.0) No. of Patients (%), the “Treatment-Related Adverse Events: DRY MOUTH” value [1] was 0 (0.0) No. of Patients (%) and the “Treatment-Related Adverse Events: DYSGEUSIA” value [1] was 1 (2.0) No. of Patients (%). For the same compound, the “Treatment-Related Adverse Events: EPISTAXIS” value [1] was 0 (0.0) No. of Patients (%), the “Treatment-Related Adverse Events: GASTROINTESTINAL DISORDERS, Any Preferred Term” value [1] was 1 (2.0) No. of Patients (%) and the “Treatment-Related Adverse Events: HEADACHE” value [1] was 0 (0.0) No. of Patients (%). The “Treatment-Related Adverse Events: NASAL DISCOMFORT” value [1] was 0 (0.0) No. of Patients (%), the “Treatment-Related Adverse Events: NERVOUS SYSTEM DISORDERS, Any Preferred Term” value [1] was 0 (0.0) No. of Patients (%) and the “Treatment-Related Adverse Events: RESPIRATORY, THORACIC AND MEDIASTINAL DISORDERS, Any Preferred Term” value [1] was 0 (0.0) No. of Patients (%). The “Treatment-Related Adverse Events: STOMACH DISCOMFORT” value [1] was 0 (0.0) No. of Patients (%), the “Treatment-Related Adverse Events: Any Adverse Event” value [2] was 3 (6.1) No. of Patients (%) and the “Treatment-Related Adverse Events: DRY MOUTH” value [2] was 0 (0.0) No. of Patients (%). For the same compound, the “Treatment-Related Adverse Events: DYSGEUSIA” value [2] was 3 (6.1) No. of Patients (%), the “Treatment-Related Adverse Events: EPISTAXIS” value [2] was 0 (0.0) No. of Patients (%) and the “Treatment-Related Adverse Events: GASTROINTESTINAL DISORDERS, Any Preferred Term” value [2] was 3 (6.1) No. of Patients (%). For the same compound, the “Treatment-Related Adverse Events: HEADACHE” value [2] was 0 (0.0) No. of Patients (%), the “Treatment-Related Adverse Events: NASAL DISCOMFORT” value [2] was 0 (0.0) No. of Patients (%) and the “Treatment-Related Adverse Events: NERVOUS SYSTEM DISORDERS, Any Preferred Term” value [2] was 0 (0.0) No. of Patients (%). For the same compound, the “Treatment-Related Adverse Events: RESPIRATORY, THORACIC AND MEDIASTINAL DISORDERS, Any Preferred Term” value [2] was 0 (0.0) No. of Patients (%), the “Treatment-Related Adverse Events: STOMACH DISCOMFORT” value [2] was 0 (0.0) No. of Patients (%) and the “Number (%) Patients With Any AEs: All Treatment-Related AEs” value (Safety Population) was 4 (8.2) Number (%). The “Number (%) of Deaths” value (Safety Population) was 0 (0.0) Number (%), the “Number (%) of Patients With Serious AEs” value (Safety Population) was 0 (0.0) Number (%) and the “Number of Adverse Events Reported: All Treatment-Emergent AEs” value (Safety Population) was 9. For the same compound, the “Number of Adverse Events Reported: All Treatment-Related AEs” value (Safety Population) was 4, the “Number (%) Patients With Treatment-Related AEs by Maximum Severity” value (Severe) was 3 (6.1) Number (%) and the “Treatment-Emergent AE: Any Adverse Event” value (Total) was 8 (16.3) No. of Patients (%). The “Treatment-Emergent AE: DRY MOUTH” value (Total) was 0 (0.0) No. of Patients (%), the “Treatment-Emergent AE: DYSGEUSIA” value (Total) was 4 (8.2) No. of Patients (%) and the “Treatment-Emergent AE: EAR AND LABYRINTH DISORDERS, Any Preferred Term” value (Total) was 1 (2.0) No. of Patients (%). The “Treatment-Emergent AE: EAR PAIN” value (Total) was 1 (2.0) No. of Patients (%), the “Treatment-Emergent AE: EPISTAXIS” value (Total) was 0 (0.0) No. of Patients (%) and the “Treatment-Emergent AE: GASTROINTESTINAL DISORDERS, Any Preferred Term” value (Total) was 4 (8.2) No. of Patients (%). For the same compound, the “Treatment-Emergent AE: HEADACHE” value (Total) was 2 (4.1) No. of Patients (%), the “Treatment-Emergent AE: MUSCULOSKELETAL AND CONNECTIVE TISSUE DISORDERS, Any Preferred Term” value (Total) was 1 (2.0) No. of Patients (%) and the “Treatment-Emergent AE: MYALGIA” value (Total) was 0 (0.0) No. of Patients (%). For the same compound, the “Treatment-Emergent AE: NASAL DISCOMFORT” value (Total) was 0 (0.0) No. of Patients (%), the “Treatment-Emergent AE: NECK PAIN” value (Total) was 1 (2.0) No. of Patients (%) and the “Treatment-Emergent AE: NERVOUS SYSTEM DISORDERS, Any Preferred Term” value (Total) was 2 (4.1) No. of Patients (%). For the same compound, the “Treatment-Emergent AE: PHARYNGOLARYNGEAL PAIN” value (Total) was 1 (2.0) No. of Patients (%), the “Treatment-Emergent AE: RESPIRATORY, THORACIC AND MEDIASTINAL DISORDERS, Any Preferred Term” value (Total) was 1 (2.0) No. of Patients (%) and the “Treatment-Emergent AE: STOMACH DISCOMFORT” value (Total) was 0 (0.0) No. of Patients (%). For the same compound, the “Treatment-Related Adverse Events: Any Adverse Event” value [3] was 4 (8.2) No. of Patients (%), the “Treatment-Related Adverse Events: DRY MOUTH” value [3] was 0 (0.0) No. of Patients (%) and the “Treatment-Related Adverse Events: DYSGEUSIA” value [3] was 4 (8.2) No. of Patients (%). For the same compound, the “Treatment-Related Adverse Events: EPISTAXIS” value [3] was 0 (0.0) No. of Patients (%), the “Treatment-Related Adverse Events: GASTROINTESTINAL DISORDERS, Any Preferred Term” value [3] was 4 (8.2) No. of Patients (%) and the “Treatment-Related Adverse Events: HEADACHE” value [3] was 0 (0.0) No. of Patients (%). For the same compound, the “Treatment-Related Adverse Events: NASAL DISCOMFORT” value [3] was 0 (0.0) No. of Patients (%).
